The record followed here is patent US12201668B2, “Adiponectin peptidomimetics formulations” (ALLYSTA PHARMACEUTICALS, INC., priority 2018, dated 2025).

The nature of data set [1]: Solubility of the peptide in acetate buffer formulation. The class given is physicochemical. As to the method:
Vehicle was prepared by dissolving propylene glycol (1.77 g) and Tyloxapol (0.1 g) in 97 mL of 35 mM of Acetic Acid/Sodium Acetate buffer, pH 4.3-4.5 by mixing until uniform. The peptide D-Asn-Ile-Pro-Nva-Leu-Tyr-D-Ser-Phe-Ala-D-Ser-NH2 (API, also referred to as ALY688 or ALY-688 herein) (1.0 g) was added to the vehicle and mixed until dissolved. The pH was adjusted with small amounts of Acetic Acid or Sodium Hydroxide. The formulation was sterile-filtered.
A concentration of 12 mg/g Acetate buffer gave a clear solution at a pH 4.5.

The test system of data set [2] is rabbit atropine-induced dry eye model. As to the kind of experiment: Slit-lamp examination of the anterior segment (McDonald-Shattuck) in atropine-induced dry eye study. The class given is in vivo, NZW rabbits. The settings on record: ALY688 0.4% ophthalmic TID (Formula 22); baseline and Day 13. As to the method:
(§1) The purpose of this study was to evaluate the efficacy of a topical ALY688 ophthalmic formulation according Formula 22 in Example 2 in a rabbit atropine-induced dry eye model.
(§2) Clinical evaluations of corneal fluorescein staining, tear break-up time and tear volume were determined at five timepoints during the 14 day dosing period. Pre-dose ophthalmic anterior segment slit-lamp exams with corneal fluorescein staining, Tear Volume (TV) and Tear Break-Up Time (TBUT) assessments were performed. Animals were assigned to treatment groups such that the average baseline TV and TBUT values were approximately equal across groups.
(§3) Study Groups were assigned as follows: • Group 1: Atropine+ALY688 0.4% ophthalmic TID, (n=6) • Group 2: Atropine+Vehicle ophthalmic TID, (n=6) • Group 3: Atropine only (n=4)
Examinations: Slit-lamp examinations of the anterior segment were performed at baseline and on Day 13 according to the McDonald-Shattuck Scoring System including conjunctival congestion, swelling, and discharge, corneal opacity, pannus, anterior chamber cells and flare, iris, light reflex, and lens.

Data set [3] has the same test system. As to the kind of experiment: Corneal epithelial fluorescein staining in atropine-induced dry eye. The class given is in vivo, NZW rabbits. As to the method:
as §1, §2, §3
(§4) Test article dosing began on Day −1.
(§5) Atropine eye drops (TID) began on Day 0.
(§6) Dry eye evaluations were performed on Days 1, 3, 7, 10, and 13.
Corneal epithelial staining: Corneal staining was assessed immediately after the TBUT measurement, after rinsing excess fluorescein. Fluorescein uptake was graded according to the NEI/Industry Grading System, in 5 separate areas of the cornea using a 0-3 grading scale maximum score: 15). Total staining score was calculated for each eye.

For data set [4] the test system is unchanged. The data set is described as follows: Tear Break-Up Time (TBUT) in atropine-induced dry eye. Format: in vivo, NZW rabbits. As for the experimental part:
as §1, §2, §3, §4, §5, §6
Tear Breakup Time (TBUT): TBUT was determined after instillation of 6 μL of 2% sodium fluorescein in sterile saline onto the lower eyelid. After manually blinking the eye, the time for black spots or streaks to appear on the cornea under cobalt filter illumination was recorded. The procedure was conducted three times consecutively, and the average of three readings was used.

Data set [5] shares this test system. The data set is described as follows: Tear Volume (TV, Schirmer Tear Test strips) in atropine-induced dry eye. Format: in vivo, NZW rabbits. As for the experimental part:
as §1, §2, §3, §4, §5, §6
Tear Volume (TV): Tear volume was measured using Schirmer Tear Test strips (Intervet, Inc., Summit, NJ), by placing the strip into the lower fornix for 60 seconds and recording the mm distance of the wetted area.

Data set [6] shares this test system. As to the kind of experiment: Atropine-induced dry eye in rabbits, overall conclusion. Format: in vivo, NZW rabbits. As for the experimental part: as §1, §2, §3, §4, §5, §6
The evaluator was masked as to treatment group for all assessments.

[7] abbreviates: integrated AUC response vs baseline, p<0.005, FIG. 4.

Non-standard residues stand in square brackets, D forms with d. Residues, ends and D or L forms follow the SMILES beside them. Nva = CCC[C@H](N)C(=O)O

Consider `CCC[C@H](NC(=O)[C@@H]1CCCN1C(=O)[C@@H](NC(=O)[C@H](N)CC(N)=O)[C@@H](C)CC)C(=O)N[C@@H](CC(C)C)C(=O)N[C@@H](Cc1ccc(O)cc1)C(=O)N[C@H](CO)C(=O)N[C@@H](Cc1ccccc1)C(=O)N[C@@H](C)C(=O)N[C@H](CO)C(N)=O` [ALY688, D-Asn-Ile-Pro-Nva-Leu-Tyr-D-Ser-Phe-Ala-D-Ser-NH2] (H-[dN]IP[Nva]LY[dS]FA[dS]-NH2; N-terminus assumed), for which, in data set [1] (Acetate buffer, pH 4.5), the “concentration that gave a clear solution” value was 12 mg/g. Further, the “solubility of the peptide” value in data set [1] (formulation of Example 1) is given as “significantly increased”. For the same compound, the “anterior segment slit-lamp exam findings related to test article” value in data set [2] is listed as “no abnormal findings”. The “corneal fluorescein staining vs vehicle control group” value in data set [3] (ALY688 0.4% TID, all evaluation timepoints, statistically significant on Days 1, 3, 10 (p<0.05)) is listed as “lower”. Besides, the “corneal staining, integrated analysis at all post-baseline timepoints vs vehicle” value in data set [3] (setting [7]) was “highly statistically significant improvement”. In addition, the TBUT decrease in data set [4] (ALY688 0.4% TID, Day 1 of atropine treatment (vehicle group 50%)) is listed as 32%. The “TBUT level by Day 7” value in data set [4] (ALY688 0.4% TID, Day 7) was “returned to baseline TBUT levels”. In data set [4] (ALY688 0.4% TID, Days 7, 10 and 13 (p<0,01)), the “TBUT compared to vehicle” value is listed as “statistically significant higher”. The “TBUT level through the remainder of the study” value in data set [4] (ALY688 0.4% TID, after Day 7 to Day 13) is “maintained normal TBUT levels”. In data set [4] (ALY688 0.4% TID, all post-baseline days, 2-sample two-tailed t-test), the “TBUT compared to atropine-only group” value is given as “statistically significantly higher”. Besides, the “TBUT, integrated analysis at all post-baseline timepoints vs vehicle” value in data set [4] (setting [7]) was “highly statistically significant improvement”. Also, the “Tear Volume vs vehicle group on Day 13” value in data set [5] (ALY688 0.4% TID, Day 13 (p=0.01), borderline (p=0.08) on Days 1 and 7) is listed as “statistically significantly higher”. In addition, the “Tear Volume vs vehicle control group” value in data set [5] (ALY688 0.4% TID, all timepoints) was “consistently higher”. Besides, the “Tear Volume, integrated analysis at all post-baseline timepoints vs vehicle” value in data set [5] (setting [7]) is given as “highly statistically significant improvement”. Also, the “reduction of dry eye signs” value in data set [6] (ALY688 ophthalmic solution 0.4% TID, 14 day dosing) is “highly effective at reducing dry eye signs”. Moreover, the onset of effects entry in data set [6] (after initiation of ALY688 treatment) is listed as “as early as two days after initiation”.
